The source made the active and inactive calls. The calls are words filed in the database; no cut-off is given here.
What was measured:
[1] = target: Kynurenine 3-monooxygenase (Mus musculus, UniProt Q91WN4)
Description: Inhibition of mouse liver mitochondrial KMO by measuring the 3-HK metabolite formation using L-kynurenine as substrate preincubated for 5 mins followed by substate addition and measured after 30 mins by LC-MS/MS analysis

[2] = Drug uptake in mouse brain at 10 mg/kg, po after 1 hr; type: ADME, organism-based; conditions: read-out: Drug uptake
[3] = Permeability of compound at pH 7.4 by PAMPA assay; type: ADME; conditions: read-out: permeability
[4] = Plasma concentration in mouse at 10 mg/kg, po after 1 hr; type: ADME, organism-based
[5] = target: T1, Kynurenine 3-monooxygenase (Homo sapiens, UniProt O15229); assay: Inhibition of human liver mitochondrial KMO at by measuring the 3-HK metabolite formation at 100 nM using L-kynurenine as substrate preincubated for 5 mins followed by substate addition and measured after 30 mins by LC-MS/MS analysis relative to control; conditions: Mitochondria, time 35.0 min
Target sequence in this assay (O15229 whole entry, looked up): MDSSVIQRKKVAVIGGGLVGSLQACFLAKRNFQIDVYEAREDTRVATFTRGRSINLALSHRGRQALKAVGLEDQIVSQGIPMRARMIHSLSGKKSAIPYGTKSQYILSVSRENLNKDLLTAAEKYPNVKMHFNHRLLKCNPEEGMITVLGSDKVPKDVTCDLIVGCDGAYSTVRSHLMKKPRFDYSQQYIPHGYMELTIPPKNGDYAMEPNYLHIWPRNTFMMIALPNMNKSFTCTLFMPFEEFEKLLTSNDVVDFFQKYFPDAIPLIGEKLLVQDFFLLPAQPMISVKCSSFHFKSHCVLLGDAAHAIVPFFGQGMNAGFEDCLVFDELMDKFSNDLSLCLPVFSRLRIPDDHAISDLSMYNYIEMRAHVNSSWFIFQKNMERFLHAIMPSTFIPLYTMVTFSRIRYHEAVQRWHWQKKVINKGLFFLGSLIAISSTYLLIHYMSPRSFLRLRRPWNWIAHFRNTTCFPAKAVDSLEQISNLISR

[6] = in vivo; conditions: mouse, brain/plasma, po, 10 mg/kg
Description: Ratio of drug level in brain to plasma of mouse at 10 mg/kg, po after 1 hr

[7] = system: Mus musculus; assay: Effect on R6/2 mouse model of HD assessed as increase in latency to fall at 100 mg/kg, po administered twice daily for 11 weeks age starting from 5 weeks of age by rotarod test; type: functional, organism-based
[8] = system: Mus musculus; assay: In vivo inhibition of KMO in R6/2 mouse model of HD assessed as decrease in 3-HK level in striatum at 100 mg/kg, po administered twice daily for 7 weeks starting from 5 weeks age; type: functional, organism-based
[9] = system: Mus musculus; assay: Cognitive enhancing effect in R6/2 mouse model of HD assessed as increase in spontaneous alteration at 100 mg/kg, po administered twice daily for 12 weeks starting from 5 weeks of age by Y-maze test; type: functional, organism-based
[10] = target: Kynurenine 3-monooxygenase (Mus musculus) (UniProt Q91WN4); assay: Inhibition of mouse liver mitochondrial KMO by measuring the 3-HK metabolite formation at 100 nM using L-kynurenine as substrate preincubated for 5 mins followed by substate addition and measured after 30 mins by LC-MS/MS analysis relative to control; conditions: Mitochondria, time 35.0 min
[11] = target: T1, Kynurenine 3-monooxygenase
Target sequence in this assay (O15229 whole entry): as the sequence (O15229 whole entry, looked up) above
Description: Inhibition of KMO (unknown origin)

Sequence of Kynurenine 3-monooxygenase (Mus musculus, UniProt Q91WN4) (Q91WN4 whole entry): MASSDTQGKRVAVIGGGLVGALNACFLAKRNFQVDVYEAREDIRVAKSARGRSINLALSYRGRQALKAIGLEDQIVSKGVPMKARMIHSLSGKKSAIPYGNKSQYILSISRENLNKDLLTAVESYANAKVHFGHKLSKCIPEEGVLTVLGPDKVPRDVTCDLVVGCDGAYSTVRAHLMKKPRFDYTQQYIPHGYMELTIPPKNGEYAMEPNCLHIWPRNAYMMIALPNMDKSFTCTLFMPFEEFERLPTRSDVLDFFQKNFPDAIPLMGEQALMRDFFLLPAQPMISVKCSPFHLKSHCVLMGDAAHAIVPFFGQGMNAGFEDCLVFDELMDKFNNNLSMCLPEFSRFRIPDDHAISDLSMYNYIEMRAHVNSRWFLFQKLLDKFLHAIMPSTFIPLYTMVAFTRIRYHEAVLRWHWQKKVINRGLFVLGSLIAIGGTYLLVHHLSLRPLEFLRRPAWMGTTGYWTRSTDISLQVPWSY
Sequence of Kynurenine 3-monooxygenase (Mus musculus) (Q91WN4 whole entry, looked up): as the sequence (Q91WN4 whole entry) above

Cc1ccc(S(=O)(=O)Nc2ccc(-c3ccc(N(C)C)cc3)nn2)cc1
IC50 [1]: 546 nM

Cc1ccc(S(=O)(=O)Nc2ccc(-c3cccc4cccnc34)nn2)cc1
concentration at 1 h [2]: 2910 ng/g
IC50 [1]: 8.7 nM
Papp [3]: 44.1 ×10⁻⁶ cm/s
concentration at 1 h [4]: 27900 ng/mL
inhibition [5]: 36%
Kp at 1 h [6]: 0.104

Cc1ccc(S(=O)(=O)Nc2ccc(-c3cccc(N(C)C)c3)nn2)cc1
IC50 [1]: 82.5 nM
Papp [3]: 32.4 ×10⁻⁶ cm/s

Cc1ccc(S(=O)(=O)Nc2ccc(-c3ccccc3N3CCOCC3)nn2)cc1
concentration at 1 h [2]: 69 ng/g
IC50 [1]: 3.9 nM
Papp [3]: 44.3 ×10⁻⁶ cm/s
concentration at 1 h [4]: 931 ng/mL
Kp at 1 h [6]: 0.076

CN(C)c1ccccc1S(=O)(=O)Nc1ccc(-c2cccc(Cl)c2)nn1
IC50 [1]: 118 nM
Papp [3]: 35.7 ×10⁻⁶ cm/s

CN(C)c1cccc(S(=O)(=O)Nc2ccc(-c3cccc(Cl)c3)nn2)c1
IC50 [1]: 31.7 nM
Papp [3]: 42.5 ×10⁻⁶ cm/s

Cc1cccc(S(=O)(=O)Nc2ccc(-c3cccc(Cl)c3)nn2)c1
IC50 [1]: 101 nM
Papp [3]: 40.2 ×10⁻⁶ cm/s

CCc1ccccc1-c1ccc(NS(=O)(=O)c2ccc(C)cc2)nn1
IC50 [1]: 29.2 nM

Cc1ccc(S(=O)(=O)Nc2ccc(-c3ccccc3N3CCCCC3)nn2)cc1
concentration at 1 h [2]: 230 ng/g
Activity [7]: Active
Papp [3]: 50.6 ×10⁻⁶ cm/s
Activity [8]: Active
Activity [9]: Active
concentration at 1 h [4]: 808 ng/mL
Kp at 1 h [6]: 0.282

O=S(=O)(Nc1ccc(-c2cccc(Cl)c2)nn1)c1cccnc1
inhibition [10]: 31%

Cc1ccc(S(=O)(=O)Nc2ccc(-c3ccccc3N3CCN(C)CC3)nn2)cc1
IC50 [1]: > 100 nM

O=S(=O)(Nc1ccc(-c2cccc(Cl)c2)nn1)c1ccccn1
inhibition [10]: 16%

O=C(O)c1cc(-c2ccc(Cl)c(OC3CC3)c2)ncn1
concentration at 1 h [2]: 177 ng/g
IC50 [1]: 8.7 nM
Papp [3]: 6.5 ×10⁻⁶ cm/s
concentration at 1 h [4]: 49100 ng/mL
Kp at 1 h [6]: 0.004

CN(C)c1cccc(S(=O)(=O)Nc2ccc(-c3ccccc3N3CCCC3)nn2)c1
concentration at 1 h [2]: 137 ng/g
IC50 [1]: 3.3 nM
Papp [3]: 31.2 ×10⁻⁶ cm/s
concentration at 1 h [4]: 879 ng/mL
Kp at 1 h [6]: 0.162

COc1ccccc1-c1ccc(NS(=O)(=O)c2ccc(C)cc2)nn1
concentration at 1 h [2]: 131 ng/g
IC50 [1]: 36.5 nM
Papp [3]: 34.7 ×10⁻⁶ cm/s
concentration at 1 h [4]: 2520 ng/mL
Kp at 1 h [6]: 0.052

Cc1ccc(S(=O)(=O)Nc2ccc(-c3cccc4c3N(C)CC4)nn2)cc1
IC50 [1]: 16.9 nM
Papp [3]: 38.5 ×10⁻⁶ cm/s

Cc1ccc(S(=O)(=O)Nc2ccc(-c3ccccc3N(C)C)nn2)cc1
concentration at 1 h [2]: 25 ng/g
IC50 [1]: 4.5 nM
Papp [3]: 35.7 ×10⁻⁶ cm/s
concentration at 1 h [4]: 185 ng/mL
Kp at 1 h [6]: 0.136

CN(C)c1ccc(S(=O)(=O)Nc2ccc(-c3cccc(Cl)c3)nn2)cc1
IC50 [1]: 402 nM

Cc1ccc(S(=O)(=O)Nc2ccc(-c3cccc4ccn(C)c34)nn2)cc1
IC50 [1]: 29.1 nM
Papp [3]: 49.2 ×10⁻⁶ cm/s

Cc1ccc(S(=O)(=O)Nc2ccc(-c3ccccc3N3CCCC3)nn2)cc1
concentration at 1 h [2]: 51 ng/g
IC50 [1]: 1.7 nM
Papp [3]: 43.5 ×10⁻⁶ cm/s
concentration at 1 h [4]: 215 ng/mL
Kp at 1 h [6]: 0.235

Cc1ccc(S(=O)(=O)Nc2ccc(-c3cccc4ccncc34)nn2)cc1
IC50 [1]: 47.2 nM
Papp [3]: 22.4 ×10⁻⁶ cm/s

O=C(O)C1CC1C(=O)c1ccc(Cl)c(Cl)c1 (centres undefined)
IC50 [11]: 40 nM

— ChEMBL document CHEMBL4673377 (Bioorg Med Chem Lett, 2021)
